Experimental data: article PMC3070735, “Uremic Toxins Inhibit Transport by Breast Cancer Resistance Protein and Multidrug Resistance Protein 4 at Clinically Relevant Concentrations” (PLoS ONE, 2011)
Structures can show the parent of a compound that is named as a salt. Where two headings read alike, the source gives them in different places.

Target: T1, MRP4 (Homo sapiens, UniProt O15439)
T1 sequence (O15439 1-1325): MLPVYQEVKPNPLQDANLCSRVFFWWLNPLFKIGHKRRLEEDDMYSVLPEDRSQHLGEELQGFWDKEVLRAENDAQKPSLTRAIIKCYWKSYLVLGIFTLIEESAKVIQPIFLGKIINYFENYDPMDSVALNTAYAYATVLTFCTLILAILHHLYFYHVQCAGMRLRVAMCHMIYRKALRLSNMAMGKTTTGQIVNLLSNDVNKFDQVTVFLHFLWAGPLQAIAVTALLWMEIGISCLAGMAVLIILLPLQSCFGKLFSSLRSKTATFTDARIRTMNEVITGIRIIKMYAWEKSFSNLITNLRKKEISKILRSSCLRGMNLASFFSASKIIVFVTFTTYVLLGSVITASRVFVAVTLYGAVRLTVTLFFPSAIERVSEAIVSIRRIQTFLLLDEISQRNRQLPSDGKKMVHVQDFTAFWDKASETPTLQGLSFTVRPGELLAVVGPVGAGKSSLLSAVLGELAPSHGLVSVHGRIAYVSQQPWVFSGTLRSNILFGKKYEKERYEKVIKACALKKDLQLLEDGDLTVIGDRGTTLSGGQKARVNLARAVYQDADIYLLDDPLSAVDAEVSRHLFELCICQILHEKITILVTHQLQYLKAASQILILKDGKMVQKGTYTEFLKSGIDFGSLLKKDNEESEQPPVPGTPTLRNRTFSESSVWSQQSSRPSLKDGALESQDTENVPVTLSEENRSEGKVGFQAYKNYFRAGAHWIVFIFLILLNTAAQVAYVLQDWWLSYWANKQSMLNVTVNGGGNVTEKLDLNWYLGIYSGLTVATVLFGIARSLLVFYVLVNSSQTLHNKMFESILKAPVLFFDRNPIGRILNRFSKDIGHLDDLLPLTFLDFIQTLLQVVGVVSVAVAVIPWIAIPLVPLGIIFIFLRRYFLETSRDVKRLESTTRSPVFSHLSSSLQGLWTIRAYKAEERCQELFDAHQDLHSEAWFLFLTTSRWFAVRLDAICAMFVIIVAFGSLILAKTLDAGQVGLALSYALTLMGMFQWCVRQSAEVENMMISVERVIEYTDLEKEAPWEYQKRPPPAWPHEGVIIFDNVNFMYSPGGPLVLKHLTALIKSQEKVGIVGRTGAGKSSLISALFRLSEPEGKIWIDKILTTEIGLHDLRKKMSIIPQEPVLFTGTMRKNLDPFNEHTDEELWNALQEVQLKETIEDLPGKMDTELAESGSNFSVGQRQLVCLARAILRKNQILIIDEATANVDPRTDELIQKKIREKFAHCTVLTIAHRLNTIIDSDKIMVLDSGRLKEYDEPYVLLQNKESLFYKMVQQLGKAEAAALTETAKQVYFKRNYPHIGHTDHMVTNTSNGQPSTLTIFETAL
Test: Membrane vesicle transport inhibition assay: MRP4-mediated [3H]-MTX uptake
Details: for Mode of inhibition of MRP4-mediated transport: Dixon plot, three [3H]-MTX concentrations; for IC20 at 10 min: human; for Effect on transport mediated by MRP4 / Decrease of MRP4-mediated transport compared to control: [3H]-MTX uptake; for Effect on transport mediated by MRP4: result in words; for Decrease of MRP4-mediated transport compared to control: toxin 1 mM
Protocol: Human embryonic kidney (HEK293; purchased at American Type Culture Collection, Manassas, VA) cells were cultured in Dulbecco's modified Eagle's medium (Invitrogen life sciences, Breda, the Netherlands) containing 10% (v/v) fetal calf serum (MP Biomedicals, Uden, the Netherlands) at 37°C in a 5% (v/v) CO2 atmosphere. To functionally overexpress MRP4 and BCRP, HEK293 cells were transduced with baculoviruses of human MRP4, BCRP or enhanced yellow fluorescent protein (EYFP), generated via the Bac-to-Bac system (Invitrogen) as previously described. To transduce HEK293 cells, they were cultured in 500 cm^2 flasks until 70% confluence. Subsequently, medium was removed and 10 ml of virus and 25 ml of medium were added and incubated for 30 min at 37°C. Next, 50 ml of medium was added and after 2 h of transduction 5 mM sodium butyrate was added.
Three days after transduction, cells were harvested and pelleted by centrifugation (30 min at 4,000 x g). Afterwards, the cells were resuspended in ice-cold hypotonic TS buffer (0.5 mM sodium phosphate, 0.1 mM EDTA, pH 7.0) containing protease inhibitors (100 µM phenylmethylsulfonyl fluoride, 5 µg/ml aprotinin, 5 µg/ml leupeptin, 1 µg/ml pepstatin and 1 µg/ml E-64) and shaken for 30 min at 4°C. Cells were then centrifuged at 100,000 x g for 30 min at 4°C. […] Afterwards, supernatant was centrifuged at 100,000 x g for 1 h at 4°C. […] The protein content of samples was determined using the Bio-Rad protein assay (Veenendaal, the Netherlands), according to manufacturers recommendations. Vesicles were frozen in liquid nitrogen and stored at −80°C until use. The orientation of the membrane vesicles was not determined, since ATP-dependent uptake occurs only in inside-out vesicles.
A rapid filtration technique was used to study the uptake of [^3H]-MTX and [^3H]-E1S into MRP4 or BCRP membrane vesicles, as previously described. In short, 25 µl of TS buffer containing 4 mM ATP, 10 mM MgCl2 and radiolabeled substrate was added to 5 µl of the membrane vesicles (1.5 mg/ml). The transport assay was performed in the absence or presence of various concentrations of uremic toxins to evaluate the inhibitory effects of these compounds on MRP4-mediated [^3H]-MTX uptake and BCRP-mediated [^3H]-E1S uptake. […] Uptake was stopped by placing the samples on ice and the addition of 150 µl ice cold TS buffer. Subsequently, the samples were transferred to a 96 well filter plate (Millipore, Etten-leur, the Netherlands) pre-incubated with TS buffer and filtered using a Multiscreen HTS-Vacuum Manifold filtration device (Millipore). Afterwards, 2 ml of scintillation liquid was added to each filter and radioactivity was determined using liquid scintillation counting. As negative controls ATP was substituted for AMP and EYFP-membrane vesicles were used. Each experiment was performed in triplicates.
Differences between groups were considered to be statistically significant when p<0.05. The mean IC50 and IC20 values were calculated from the inhibition curves used for the Dixon analysis and to determine the inhibition constant (Ki) from the Dixon plots. Transport inhibition studies were performed in triplicate and repeated at least three times.

[1] = IC50, [3H]-MTX uptake into MRP4 membrane vesicles, 10 min, 37°C, mean ± SEM of three experiments
[2] = membrane vesicles from HEK293 cells overexpressing MRP4, pH 7, probe [3H]-methotrexate ([3H]-MTX)
[3] = IC50 (concentration inhibiting 50% of transport by MRP4), MRP4-mediated [3H]-MTX uptake

In the case of `O=C(O)Cc1c[nH]c2ccccc12` [indole-3-acetic acid], the Ki is reported as 2000 ± 70 µM, the “Mode of inhibition of MRP4-mediated transport” value is reported as “non-competitive” and the IC50 [1] is reported as 1795 ± 8 µM. The IC20 at 10 min [2] was 570 ± 30 µM.

`O=C(O)Cc1ccccc1` [phenylacetic acid] was tested, and the IC50 [3] was 7000 µM, the IC50 [1] was 7100 ± 1600 µM and the IC20 at 10 min (pH 7) was 1600 ± 170 µM.

With `O=C(O)c1cccnc1C(=O)O` [quinolinic acid] the “Effect on transport mediated by MRP4” value was “did not alter transport” and the “Decrease of MRP4-mediated transport compared to control” value (“Decrease of MRP4-mediated transport” for short) was at most 10%.

`O=S(=O)(O)Oc1c[nH]c2ccccc12` [indoxyl sulfate] was tested, and the IC50 was 1750 ± 110 µM, the Ki was 1000 ± 90 µM and the “Mode of inhibition of MRP4-mediated transport” value was “non-competitive”. For the same molecule, the IC20 at 10 min [2] was 530 ± 70 µM.

In the case of `O=C(O)CNC(=O)c1ccccc1` [hippuric acid], the Ki is reported as 2500 ± 50 µM, the “Mode of inhibition of MRP4-mediated transport” value is reported as “non-competitive” and the IC50 [3] is reported as 2500 µM. The IC50 [1] was 990 ± 180 µM and the IC20 at 10 min [2] was 350 ± 20 µM.

For `Cc1ccc(O)cc1` [p-cresol], the “Effect on transport mediated by MRP4” value was “did not alter transport” and the “Decrease of MRP4-mediated transport” value was at most 10%.

`O=C(O)C(=O)O` [oxalate] was tested, and the “Effect on transport mediated by MRP4” value was “did not alter transport” and the “Decrease of MRP4-mediated transport” value was at most 10%.

`Cc1ccc(S(=O)(=O)O)cc1` [p-toluenesulfonic acid, reference compound] was tested, and the “Effect on transport mediated by MRP4” value was “did not alter transport” and the “Decrease of MRP4-mediated transport” value was at most 10%.

For `O=C(O)c1cc(=O)c2ccccc2[nH]1` [kynurenic acid], the IC50 was 8 ± 1 µM, the Ki was 25 ± 2 µM and the IC20 at 10 min [2] was 1.5 ± 0.3 µM.

In the case of `NCCCCN` [putrescine], the “Effect on transport mediated by MRP4” value is reported as “did not alter transport” and the “Decrease of MRP4-mediated transport” value is reported as at most 10%.
